From US12274710B2, “Compound for regulating body weight imbalance, composition thereof and application thereof” (GUANGZHOU CENTURY CLINICAL RESEARCH CO., LTD, priority 2019, dated 2025)
Read-outs that look alike come from different tables or passages of the source.

Tests used:
rats in obese model = test: Effect on BMI of rats in obese model (formula feed); assay type: in vivo, SD rats; conditions: for BMI / BMI of animals compared with the model group (in words): 4 weeks; for BMI: model group 7.73 ± 0.27
From the text: Except the blank group and the model group, each group had three subgroups: low dose, middle dose, and high dose. There were 6 animals in each subgroup.
The animals in the blank group were fed with a common feed every day. The animals in each group except the blank group were fed with a formula feed every day. The formula feed contained 5% of cholesterol, 6% of sucrose, 20% of egg yolk, 6% of peanut butter, 12% of whole milk powder, 6% of sesame oil (the percentage was by mass) and other ingredients of the common feed.
Each test drug was mixed with 5% methylcellulose solution; the animals in each group except the blank group and the model group were administered intragastrically respectively with a low dose of 100 mg/kg, a middle dose of 400 mg/kg and a high dose of 1,600 mg/kg; the animals in the blank group and the model group were not administered with the test drug and they were administered intragastrically with the same amount of 5% methylcellulose solution respectively. The intragastric administration was conducted once a day continuously for 4 weeks.
During the test process, the animals in each group were able to eat normally without anorexia. The stool characteristics were normal and no obvious diarrhea occurred.
After the last drug administration, the animals in each group were fasted for 12 h, during which water was provided, and then the animals were weighed.
Body length (distance from the nose to the anus) was measured after the animals were anesthetized with sodium pentobarbital and body mass index (BMI) (BMI=weight (kg)÷(height (m))^2) was calculated.
Statistical analysis was conducted by using the data in each group and the main results were screened and shown in Table 3 (Note: some test drugs in the table only list the middle-dose subgroups).

[1] = for Rate of weight change: after treatment vs before, 4 weeks
From the text: (§1) The dosage was based on a standard dosage of 3 g per day and should be increased or decreased according to individual conditions of the patients.
Weight changes of patients before and after treatment were also investigated: Rate of weight change=(weight after treatment−weight before treatment)÷weight before treatment×100%.

[2] = system: patients diagnosed with gastric ulcer or duodenal ulcer; test: Routine examination indicators and digestive function before and after drug treatment (safety); assay type: in vivo, human; conditions: after treatment, 4 weeks
From the text: (§2) Efficacy and safety of the compound of the present disclosure in treating ulcers were studied in patients suffering from gastric ulcer or duodenal ulcer.
as §1
The number of red blood cells, the number of white blood cells, ALT, AST, serum creatinine, urine protein and other laboratory test items were checked before and after treatment. Routine clinical diagnostic criterias were used to determine whether the test items were normal and the normal rate was calculated. Normal rate of test indicators=number of patients with normal test indicators÷total number of patients in this group×100%
Effects of the drug on normal digestive function of the patients were also investigated before and after treatment by determining the rate of loose stool and the rate of constipation: Rate of loose stool=number of patients with loose stool÷total number of patients in this group×100%; and Rate of constipation=number of patients with constipation÷total number of patients in this group×100%.

[3] = system: patients diagnosed with gastric ulcer or duodenal ulcer; conditions: 4 weeks
From the text: as §2, §1
The number of ulcer foci and the area of ulcer foci (mm^2) of each patient were checked before and after the treatment, and the efficacy after treatment was judged according to the following criteria:
Completely healed: after the treatment, the ulcers and surrounding inflammation all disappeared after an endoscopic examination;
Basically healed: after the treatment, the ulcers disappeared in an endoscopic examination, but there was still inflammation; and partially healed: after the treatment, the area of the ulcers was reduced by 50% or more in an endoscopic examination; and
Unhealed: after the treatment, the area of the ulcers was reduced by less than 50% in an endoscopic examination.
The healing rate was used as an indicator of efficacy. Healing rate=(number of completely healed patients+number of basically healed patients)÷total number of patients in this group×100%.

[4] = system: persons suffering from weight imbalance
[5] = middle dose 400 mg/kg intragastrically once a day

Question: For COc1ccc(-c2cc(=O)c3c(O)cc(O[C@@H]4O[C@H](CO[C@@H]5O[C@@H](C)[C@H](O)[C@@H](O)[C@H]5O)[C@@H](O)[C@H](O)[C@H]4O)cc3o2)cc1O [diosmin, reference compound], which BMI (rats in obese model; [5]) is on record?
Answer: 7.60 ± 0.39 kg/m^2

Question: And the “BMI of animals compared with the model group (in words)” value (rats in obese model; obese model rats)?
Answer: no significant difference

Question: Which “Rate of weight change” value ([1]; Group 0.5 g) does the source give for dosmalfate [compound 3] here?
Answer: −4.2%

Question: And the “Rate of weight change” value ([1]; Group 1 g)?
Answer: −5.3%

Question: And the “Rate of weight change” value ([1]; Group 3 g)?
Answer: −7.0%

Question: What about the “Rate of weight change” value ([1]; Group 9 g) of the same compound?
Answer: −7.1%

Question: What about the “Rate of weight change” value ([1]; Group 18 g) of the same compound?
Answer: −3.8%

Question: What about the “Effect on weight of ulcer patients (in words)” value ([1]; each dosage group, after 4 weeks of administration) of the same compound?
Answer: weight loss to varing degrees

Question: And the “Normal rate of ALT” value ([2]; Group 0.5 g)?
Answer: 90.0%

Question: What about the “Normal rate of AST” value ([2]; Group 0.5 g) of the same compound?
Answer: 100.0%

Question: And the “Normal rate of red blood cells” value ([2]; Group 0.5 g)?
Answer: 100.0%

Question: And the “Normal rate of serum creatinine” value ([2]; Group 0.5 g)?
Answer: 100.0%

Question: And the “Normal rate of urine protein” value ([2]; Group 0.5 g)?
Answer: 100.0%

Question: What about the “Normal rate of white blood cells” value ([2]; Group 0.5 g) of the same compound?
Answer: 100.0%

Question: And the Rate of constipation ([2]; Group 0.5 g)?
Answer: 0.0%

Question: What about the “Rate of loose stool” value ([2]; Group 0.5 g) of the same compound?
Answer: 0.0%

Question: And the “Normal rate of ALT” value ([2]; Group 1 g)?
Answer: 94.4%

Question: What about the “Normal rate of AST” value ([2]; Group 1 g) of the same compound?
Answer: 100.0%

Question: And the “Normal rate of red blood cells” value ([2]; Group 1 g)?
Answer: 94.4%

Question: And the “Normal rate of serum creatinine” value ([2]; Group 1 g)?
Answer: 100.0%

Question: And the “Normal rate of urine protein” value ([2]; Group 1 g)?
Answer: 94.4%

Question: And the “Normal rate of white blood cells” value ([2]; Group 1 g)?
Answer: 100.0%

Question: What about the Rate of constipation ([2]; Group 1 g) of the same compound?
Answer: 0.0%

Question: And the “Rate of loose stool” value ([2]; Group 1 g)?
Answer: 0.0%

Question: And the “Normal rate of ALT” value ([2]; Group 3 g)?
Answer: 91.9%

Question: And the “Normal rate of AST” value ([2]; Group 3 g)?
Answer: 94.6%

Question: And the “Normal rate of red blood cells” value ([2]; Group 3 g)?
Answer: 94.6%

Question: What about the “Normal rate of serum creatinine” value ([2]; Group 3 g) of the same compound?
Answer: 94.6%

Question: And the “Normal rate of urine protein” value ([2]; Group 3 g)?
Answer: 94.6%

Question: What about the “Normal rate of white blood cells” value ([2]; Group 3 g) of the same compound?
Answer: 91.9%

Question: And the Rate of constipation ([2]; Group 3 g)?
Answer: 2.7%

Question: What about the “Rate of loose stool” value ([2]; Group 3 g) of the same compound?
Answer: 0.0%

Question: What about the “Normal rate of ALT” value ([2]; Group 9 g) of the same compound?
Answer: 90.0%

Question: What about the “Normal rate of AST” value ([2]; Group 9 g) of the same compound?
Answer: 90.0%

Question: And the “Normal rate of red blood cells” value ([2]; Group 9 g)?
Answer: 90.0%

Question: What about the “Normal rate of serum creatinine” value ([2]; Group 9 g) of the same compound?
Answer: 100.0%

Question: What about the “Normal rate of urine protein” value ([2]; Group 9 g) of the same compound?
Answer: 100.0%

Question: And the “Normal rate of white blood cells” value ([2]; Group 9 g)?
Answer: 100.0%

Question: What about the Rate of constipation ([2]; Group 9 g) of the same compound?
Answer: 0.0%

Question: What about the “Rate of loose stool” value ([2]; Group 9 g) of the same compound?
Answer: 0.0%

Question: And the “Normal rate of ALT” value ([2]; Group 18 g)?
Answer: 100.0%

Question: What about the “Normal rate of AST” value ([2]; Group 18 g) of the same compound?
Answer: 100.0%

Question: And the “Normal rate of red blood cells” value ([2]; Group 18 g)?
Answer: 80.0%

Question: What about the “Normal rate of serum creatinine” value ([2]; Group 18 g) of the same compound?
Answer: 100.0%

Question: And the “Normal rate of urine protein” value ([2]; Group 18 g)?
Answer: 100.0%

Question: What about the “Normal rate of white blood cells” value ([2]; Group 18 g) of the same compound?
Answer: 80.0%

Question: What about the Rate of constipation ([2]; Group 18 g) of the same compound?
Answer: 0.0%

Question: And the “Rate of loose stool” value ([2]; Group 18 g)?
Answer: 0.0%

Question: And the “Healing rate of ulcers” value ([3]; Group 0.5 g/day, 10 patients)?
Answer: 30.0%

Question: What about the “Healing rate of ulcers” value ([3]; Group 1 g/day, 18 patients) of the same compound?
Answer: 55.6%

Question: What about the “Healing rate of ulcers” value ([3]; Group 3 g/day, 37 patients) of the same compound?
Answer: 62.2%

Question: What about the “Healing rate of ulcers” value ([3]; Group 9 g/day, 10 patients) of the same compound?
Answer: 80.0%

Question: And the “Healing rate of ulcers” value ([3]; Group 18 g/day, 5 patients)?
Answer: 80.0%

Question: What about the BMI (rats in obese model; high dose 1,600 mg/kg intragastrically once a day) of the same compound?
Answer: 5.85 ± 0.23 kg/m^2

Question: And the BMI (rats in obese model; low dose 100 mg/kg intragastrically once a day)?
Answer: 6.72 ± 0.32 kg/m^2

Question: And the BMI (rats in obese model; [5])?
Answer: 6.06 ± 0.29 kg/m^2

Question: And the “BMI of animals compared with the model group (in words)” value (rats in obese model; obese model rats)?
Answer: significantly reduced

Question: And the “Relative effectiveness on BMI at the same dose (in words)” value (rats in obese model; obese model rats, same dose)?
Answer: more effective than compound 1 and compound 2

Question: What about the “Uric acid level after administration” value ([4]; A person, 680 μmol/L before, 3 g three times a day, two months, no uric acid-lowering drug) of the same compound?
Answer: 600 µmol/L

Question: And the “BMI index after administration” value ([4]; A person, BMI 29 before, 1.5 g three times a day, three months)?
Answer: 25.7

Question: And the “BMI index after administration” value ([4]; A person, BMI 32 before, 3 g three times a day, two months)?
Answer: 28.2

Question: And the “BMI index after administration” value ([4]; Person, BMI 25 before, 1 g twice a day, two months)?
Answer: 22

Question: And the “Body weight after administration” value ([4]; Person, obesity and hyperuricemia, 85 kg before, 3 g three times a day, two months)?
Answer: 75 kg

Question: And the “Body weight after administration” value ([4]; Person, polycystic ovary syndrome, 62 kg before, 1.5 g three times a day, three months)?
Answer: 55 kg

Question: For sucralfate [reference compound], which BMI (rats in obese model; [5]) is on record?
Answer: 7.87 ± 0.34 kg/m^2

Question: What about the “BMI of animals compared with the model group (in words)” value (rats in obese model; obese model rats) of the same compound?
Answer: no significant difference
